According to ChEMBL document CHEMBL3739329, “Synthesis and biological evaluation of nitric oxide-releasing hybrids from gemcitabine and phenylsulfonyl furoxans as anti-tumor agents” (Medchemcomm, 2015):
Active and inactive are the calls of the source. No cut-off for these calls is given here.

Key:
[1] = Cytotoxicity against human SGC7901 cells assessed as inhibition of cell proliferation after 48 hrs by MTT assay; type: functional, cell-based; conditions: SGC-7901, 48 h
[2] = tested on: HepG2; assay: Cytotoxicity against human HepG2 cells assessed as inhibition of cell proliferation after 48 hrs by MTT assay; type: functional, cell-based; conditions: HepG2, 48 h
[3] = Cytotoxicity against human HCT116 cells assessed as inhibition of cell proliferation after 48 hrs by MTT assay; type: functional, cell-based; conditions: HCT-116, 48 h
[4] = Cytotoxicity against human SW620 cells assessed as inhibition of cell proliferation after 48 hrs by MTT assay; type: functional, cell-based; conditions: SW-620, 48 h
[5] = tested on: A549; assay: Cytotoxicity against human A549 cells assessed as inhibition of cell proliferation after 48 hrs by MTT assay; type: functional, cell-based; conditions: A549, 48 h
[6] = tested on: HepG2; assay: Induction of NO production in human HepG2 cells at 100 uM incubated for 24 hrs by Griess assay; type: functional, cell-based
[7] = tested on: HCT-116; assay: Induction of NO production in human HCT116 cells at 100 uM incubated for 24 hrs by Griess assay; type: functional, cell-based
[8] = tested on: SW-620; assay: Induction of nitrite/nitrate production in human SW620 cells at 100 uM incubated for 24 hrs by Griess assay; type: functional, cell-based
[9] = Cytotoxicity against human LO2 cells assessed as inhibition of cell proliferation after 48 hrs by MTT assay; type: cell-based; conditions: l02, 48 h
[10] = tested on: HepG2; assay: Cytotoxicity against human HepG2 cells assessed as inhibition of cell proliferation at 0.5 to 50 uM after 48 hrs in presence of dipyridamole by MTT assay; type: functional, cell-based
[11] = tested on: HepG2; assay: Induction of nitric oxide release in human HepG2 cells incubated for 24 hrs by DAF-FM DA staining-based flow cytometric analysis; type: functional, cell-based
[12] = tested on: HepG2; assay: Cytotoxicity against human HepG2 cells assessed as inhibition of cell proliferation at 2 to 4 uM after 48 hrs in presence of haemoglobin; type: functional, cell-based
[13] = tested on: HepG2; assay: Induction of apoptosis in human HepG2 cells at 2 uM incubated for 48 hrs by FITC-Annexin V/PI staining-based flow cytometric analysis; type: functional
[14] = tested on: HepG2; assay: Induction of apoptosis in human HepG2 cells incubated for 48 hrs by FITC-Annexin V/PI staining-based flow cytometric analysis; type: functional, cell-based
[15] = tested on: HepG2; assay: Induction of apoptosis in human HepG2 cells assessed as reduction in Bcl-2 protein level incubated for 48 hrs by Western blot analysis; type: functional, cell-based
[16] = tested on: HepG2; assay: Induction of apoptosis in human HepG2 cells assessed as increase in Bax protein level incubated for 48 hrs by Western blot analysis; type: functional, cell-based
[17] = tested on: HepG2; assay: Induction of apoptosis in human HepG2 cells assessed as increase in activated caspase-3 protein level at 0.5 to 2 uM incubated for 48 hrs by Western blot analysis; type: functional, cell-based
[18] = tested on: HepG2; assay: Induction of apoptosis in human HepG2 cells assessed as reduction in PARP-1 protein level at 2 uM incubated for 48 hrs by Western blot analysis; type: functional, cell-based
[19] = tested on: HCT-116; assay: Induction of nitric oxide release in human HCT116 cells incubated for 24 hrs by DAF-FM DA staining-based flow cytometric analysis; type: functional, cell-based
[20] = tested on: SW-620; assay: Induction of nitric oxide release in human SW620 cells incubated for 24 hrs by DAF-FM DA staining-based flow cytometric analysis; type: functional, cell-based
[21] = tested on: HepG2; assay: Induction of apoptosis in human HepG2 cells assessed as reduction in PARP-1 protein level at 0.5 to 2 uM incubated for 48 hrs by Western blot analysis; type: functional, cell-based
[22] = tested on: HepG2; assay: Induction of nitric oxide release in human HepG2 cells at 6 uM incubated for 24 hrs by DAF-FM DA staining-based flow cytometric analysis; type: functional, cell-based
[23] = tested on: SW-620; assay: Induction of nitric oxide release in human SW620 cells at 6 uM incubated for 24 hrs by DAF-FM DA staining-based flow cytometric analysis; type: functional, cell-based
[24] = tested on: HCT-116; assay: Induction of nitric oxide release in human HCT116 cells at 6 uM incubated for 24 hrs by DAF-FM DA staining-based flow cytometric analysis; type: functional, cell-based

Structure (SMILES)	IC50 [1] [µM]	IC50 [2] [µM]	IC50 [3] [µM]	IC50 [4] [µM]	IC50 [5] [µM]	Activity [6]	Activity [7]	Activity [8]	further results
O=C(CCC(=O)Nc1ccn([C@@H]2O[C@H](CO)[C@@H](O)C2(F)F)c(=O)n1)NCCOc1no[n+]([O-])c1S(=O)(=O)c1ccccc1	9.92	10.5	> 12.5	9.16	> 12.5	–	–	–	–
O=C(CCC(=O)Nc1ccn([C@@H]2O[C@H](CO)[C@@H](O)C2(F)F)c(=O)n1)NCCCCOc1no[n+]([O-])c1S(=O)(=O)c1ccccc1	5.1	3.22	3.06	4.35	6.04	Active	Active	Active	–
O=C(O)CCC(=O)OCC#CCOc1no[n+]([O-])c1S(=O)(=O)c1ccccc1	11.5	8.73	9.86	9.09	> 12.5	–	–	–	–
O=C(CCC(=O)OCCCCOc1no[n+]([O-])c1S(=O)(=O)c1ccccc1)Nc1ccn([C@@H]2O[C@H](CO)[C@@H](O)C2(F)F)c(=O)n1	6.13	2.44	3.57	2.49	5.18	Active	Active	Active	–
O=C(CCC(=O)OCCCOc1no[n+]([O-])c1S(=O)(=O)c1ccccc1)Nc1ccn([C@@H]2O[C@H](CO)[C@@H](O)C2(F)F)c(=O)n1	9.26	5.32	6.89	5	9.92	Active	Active	Active	–
CC(CCOC(=O)CCC(=O)Nc1ccn([C@@H]2O[C@H](CO)[C@@H](O)C2(F)F)c(=O)n1)Oc1no[n+]([O-])c1S(=O)(=O)c1ccccc1 (stereo partly drawn)	7.44	3.25	4.69	3.98	7.82	Active	Active	Active	–
CN(CCOc1no[n+]([O-])c1S(=O)(=O)c1ccccc1)C(=O)CCC(=O)Nc1ccn([C@@H]2O[C@H](CO)[C@@H](O)C2(F)F)c(=O)n1	5.85	8.39	10.8	5.21	10.1	–	–	–	–
O=C(CCC(=O)Nc1ccn([C@@H]2O[C@H](CO)[C@@H](O)C2(F)F)c(=O)n1)NCCCCCOc1no[n+]([O-])c1S(=O)(=O)c1ccccc1	11.8	10.7	> 12.5	> 12.5	> 12.5	–	–	–	–
O=C(CCC(=O)Nc1ccn([C@@H]2O[C@H](CO)[C@@H](O)C2(F)F)c(=O)n1)NCCCOc1no[n+]([O-])c1S(=O)(=O)c1ccccc1	6.71	6.18	4.1	4.97	8.9	Active	Active	Active	–
O=C(CCC(=O)OCCCCCOc1no[n+]([O-])c1S(=O)(=O)c1ccccc1)Nc1ccn([C@@H]2O[C@H](CO)[C@@H](O)C2(F)F)c(=O)n1	10.5	> 12.5	11.3	9.67	> 12.5	–	–	–	–
O=C(CCC(=O)OCCOc1no[n+]([O-])c1S(=O)(=O)c1ccccc1)Nc1ccn([C@@H]2O[C@H](CO)[C@@H](O)C2(F)F)c(=O)n1	> 12.5	> 12.5	10.3	> 12.5	> 12.5	–	–	–	–
O=C(CCC(=O)OCCOCCOc1no[n+]([O-])c1S(=O)(=O)c1ccccc1)Nc1ccn([C@@H]2O[C@H](CO)[C@@H](O)C2(F)F)c(=O)n1	10.7	7.05	7.86	> 12.5	11.5	–	–	–	–
O=C(CCC(=O)OCC#CCOc1no[n+]([O-])c1S(=O)(=O)c1ccccc1)Nc1ccn([C@@H]2O[C@H](CO)[C@@H](O)C2(F)F)c(=O)n1	1.36	1.02	1.19	1.3	3.27	Active	Active	Active	Activity [9]: Non-toxic; Activity [10]: Active; Activity [11]: Dose-dependent effect; Activity [12]: inactive; Activity [13]: 78.3%; Activity [14]: Active; Activity [15]: Dose-dependent effect; Activity [16]: Dose-dependent effect; Activity [17]: Active; Activity [18]: Active; Activity [19]: Dose-dependent effect; Activity [20]: Dose-dependent effect; Activity [21]: Active
O=C(CCC(=O)Oc1ccc(CCOc2no[n+]([O-])c2S(=O)(=O)c2ccccc2)cc1)Nc1ccn([C@@H]2O[C@H](CO)[C@@H](O)C2(F)F)c(=O)n1	> 12.5	9.21	8.78	> 12.5	> 12.5	–	–	–	–
Nc1ccn([C@@H]2O[C@H](CO)[C@@H](O)C2(F)F)c(=O)n1 [GEMCITABINE]	3.58	2.97	7.33	5.62	2.69	inactive	inactive	inactive	Activity [10]: inactive; Activity [13]: Active; Activity [18]: Active
CCOC(=O)N1CCN(/[N+]([O-])=N/Oc2ccc([N+](=O)[O-])cc2[N+](=O)[O-])CC1	–	7.42	3.75	5.16	–	–	–	–	Activity [22]: Active; Activity [23]: Active; Activity [24]: Active
